Laboratory results taken from patent publication US7893278B2, “CIS-imidazolines” (Hoffman-La Roche Inc., priority 2004, dated 2011).

Target: interaction between p53 and MDM2 proteins (recombinant GST-tagged MDM2) (Homo sapiens, UniProt Q00987)
Test: ELISA of inhibition of the interaction between p53 and MDM2 (GST-tagged MDM2 binding to immobilized p53-like peptide)
Conditions: recombinant GST-tagged MDM2 / biotinylated p53-like peptide

interaction between p53 and MDM2 proteins (recombinant GST-tagged MDM2), sequence (Q00987 whole entry): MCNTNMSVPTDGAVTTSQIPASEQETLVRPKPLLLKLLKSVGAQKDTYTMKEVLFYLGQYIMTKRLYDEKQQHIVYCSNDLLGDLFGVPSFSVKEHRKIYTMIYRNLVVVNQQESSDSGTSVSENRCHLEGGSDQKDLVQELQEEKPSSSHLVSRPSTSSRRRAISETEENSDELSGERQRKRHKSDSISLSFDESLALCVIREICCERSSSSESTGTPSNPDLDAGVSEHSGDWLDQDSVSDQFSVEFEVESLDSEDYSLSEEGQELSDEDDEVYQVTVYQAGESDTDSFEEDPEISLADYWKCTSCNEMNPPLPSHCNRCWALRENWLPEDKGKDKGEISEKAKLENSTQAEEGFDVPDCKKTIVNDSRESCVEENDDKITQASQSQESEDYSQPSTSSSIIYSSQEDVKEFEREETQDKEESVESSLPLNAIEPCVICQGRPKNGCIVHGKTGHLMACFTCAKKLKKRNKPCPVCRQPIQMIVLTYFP

IC50: 71 nM
SMILES: COc1ccc(C2=N[C@@H](c3ccc(Cl)cc3)[C@@H](c3ccc(Cl)cc3)N2C(=O)N2CCC(N3CCCC3)CC2)c(OC(C)C)c1 [Example 5, [(4S,5R)-4,5-Bis-(4-chloro-phenyl)-2-(2-isopropoxy-4-methoxy-phenyl)-4,5-dihydro-imidazol-1-yl]-(4-pyrrolidin-1-yl-piperidin-1-yl)-methanone]
